# Target: T1, RPS6KA1 (RSK1) (Homo sapiens, UniProt Q15418)
# T1 construct: purchased Thermo Fisher Scientific (Life Technologies) SelectScreen
# Assay: SelectScreen Z'LYTE
# Assay type: biochemical
# Outline: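 SelectScreen broad panel; activity (Z'LYTE, Adapta) plus binding formats. ATP: Km app for CSF1R Z'LYTE; 10 for CAMK1 Adapta. Readout = % per kinase.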
# T1 sequence (Q15418 whole entry): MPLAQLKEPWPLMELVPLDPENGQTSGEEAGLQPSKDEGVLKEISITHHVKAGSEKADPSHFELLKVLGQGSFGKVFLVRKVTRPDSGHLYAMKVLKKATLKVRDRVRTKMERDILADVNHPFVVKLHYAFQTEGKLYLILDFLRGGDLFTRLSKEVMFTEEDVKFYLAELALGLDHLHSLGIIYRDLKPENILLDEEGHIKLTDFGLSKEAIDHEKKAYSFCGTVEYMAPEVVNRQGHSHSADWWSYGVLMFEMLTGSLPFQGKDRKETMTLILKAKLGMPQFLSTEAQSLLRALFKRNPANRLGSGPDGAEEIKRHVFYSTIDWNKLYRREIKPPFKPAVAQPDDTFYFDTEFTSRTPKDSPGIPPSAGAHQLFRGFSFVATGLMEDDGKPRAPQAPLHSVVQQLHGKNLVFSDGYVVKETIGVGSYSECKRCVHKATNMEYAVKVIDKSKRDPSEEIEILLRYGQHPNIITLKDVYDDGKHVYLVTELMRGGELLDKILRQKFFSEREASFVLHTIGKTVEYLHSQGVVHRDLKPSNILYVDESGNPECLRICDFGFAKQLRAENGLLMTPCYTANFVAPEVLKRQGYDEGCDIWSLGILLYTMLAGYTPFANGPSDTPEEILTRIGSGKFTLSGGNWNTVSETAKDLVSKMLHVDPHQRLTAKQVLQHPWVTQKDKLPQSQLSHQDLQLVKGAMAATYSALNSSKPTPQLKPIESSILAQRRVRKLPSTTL
structure (smiles),measurement,value
CN(C(=O)CN1CCOCC1)c1ccc2sc3c(-c4cccc5c(=O)cc(N6CC7CCC(C6)O7)oc45)cccc3c2c1 [NU5455],inhibition at 1 µM,5.7%

# Reference: article PMC6934184, “Selective DNA-PKcs inhibition extends the therapeutic index of localized radiotherapy and chemotherapy” (The Journal of Clinical Investigation, 2019)
